Measured values: patent US10696947B2, “Culture medium composition for maturating cardiomyocytes derived from pluripotent mammalian stem cells” (Ncardia B.V., priority 2013, dated 2020)
Entries after “also recorded” stand apart in the source; their conditions may differ.

What was measured:
Type in all cases: cell-based
[1] = system: foetal-like (immature) cardiomyocytes derived from PESC; experiment: Metabolic profile by TMRM assay (flow cytometry); conditions: 100 ng/ml T3 in culture medium, 17 days, 5 nM TMRM, compared to medium lacking T3
Experimental: Foetal-like (immature) cardiomyocytes derived from PESC in in vitro culture were divided in two experimental groups. The first group was exposed to a culture medium composition as taught herein but which lacked T3 (control situation). The second group was exposed to a culture medium composition as taught herein but which comprised T3 (100 ng/ml). Both groups were incubated in their respective culture medium composition for 17 days. An amount of 5 nM TMRM (Invitrogen) was added in the respective media the day before measurement. Cells were dissociated using 5× Tryple, but with TMRM included in all solutions and also present during measurement, Measurements were performed on a Miltenyi MACSquant VYB flow cytometer.

[2] = system: foetal-like (immature) cardiomyocytes derived from human pluripotent embryonic stem cells (PESCs); experiment: Electrophysiological properties by perforated patch clamp; conditions: 100 ng/ml T3 in culture medium, 12 days, compared to medium lacking T3
Experimental: Foetal-like (immature) cardiomyocytes derived from PESC in in vitro culture were divided in two experimental groups. The first group was exposed to a culture medium composition as taught herein but which lacked T3 (control situation). The second group was exposed to a culture medium composition as taught herein but which comprised T3 (100 ng/ml). Both groups were incubated in their respective culture medium composition for 12 days. At the term of the treatment, foetal-like (immature) cardiomyocytes from both experimental groups were subjected to a patch clamp procedure.
Patch clamp electrophysiology was performed as described by Bellin, M. et al. EMBO J 32, 3161-3175 (2013)). using minor modifications. Action potentials from small groups of cells (5-10 cells) were measured with the perforated patch clamp technique using an Axopatch 200b amplifier (Molecular Devices) and low resistance patch pipettes (1.5-2.5 MΩ). Data acquisition and analyses of action potentials were performed with pClamp 10 (axon instruments) and custom made software. Action Potentials were corrected for the calculated liquid junction potential (−15 mV).
Action potentials from spontaneous beating cells were measured at […] using a modified Tyrode's solution containing (in mM): 140 NaCl, 5.4 KCl, 1.8 CaCl2, 1.0 MgCl2, 5.5 glucose, 5.0 HEPES; pH7.2 (NaOH). The pipette solution contained (in mM): 125 K-gluconate, 20 KCl, 5 NaCl, 0.22 amphotericin-B, 10 HEPES; pH 7.2 (KOH). The resting membrane potential (RMP), maximal upstroke velocity (dV/dt max), AP amplitude in mV (APA), and AP duration in milli-seconds (APD) at 20, 50 and 90% repolarization (APD50, and APD90, respectively) were analyzed. Upstroke velocity was calculated from the first derivative of the change in voltage as a function of time. Thus the maximum upstroke velocity (dV/dt max) is equal to the maximum positive value of the first derivative of the action potential. Data from 10 consecutive action potentials were averaged.

[3] = system: foetal-like (immature) cardiomyocytes derived from human pluripotent embryonic stem cells (PESCs); experiment: Morphological features by alpha-actinin immunofluorescence; conditions: 100 ng/ml T3 in culture medium composition, 5 days, compared to medium lacking T3
Experimental: Foetal-like (immature) cardiomyocytes derived from PESC in in vitro culture were divided in two experimental groups. The first group was exposed to a culture medium composition as taught herein but which lacked T3 (control situation). The second group was exposed to a culture medium composition as taught herein but which comprised T3 (100 ng/ml). Both groups were incubated in their respective culture medium composition for 5 days, At the term of the treatment, cardiomyocytes from both experimental groups were fixed in 4% paraformaldehyde, permeabilised with phosphate buffer saline (PBS)/0.1% Triton X-100 (Sigma-Aldrich), and blocked with phosphate buffer saline (PBS)/0.1% Triton X-100 (Sigma-Aldrich) 1% BSA. Samples were incubated 1-hour at room temperature with a primary antibodies specific for the following: alpha-actinin (Eptomics Ab 68167) (at a concentration of 1/400), The primary antibody was detected with either Cy3- or Alexa-Fluor 647-conjugated secondary antibodies (at a concentration of 1/250). Images were captured using either a Leica SP5-STED or a Leica SP5 confocal laser-scanning microscope (Leica Microsystems).

## N[C@@H](Cc1cc(I)c(Oc2ccc(O)c(I)c2)c(I)c1)C(=O)O [T3, triiodothyronine]
[1]
  mitochondrial activity (TMRM-associated orange fluorescence): enhanced mitochondrial activity; also recorded: increased mitochondrial activity
[2]
  amplitude of the action potential: greater amplitude of the action potential; also recorded: increased amplitude of the action potential
  maximal upstroke velocity (dV/dt max): greater maximal upstroke velocity; also recorded: increased maximum upstroke velocity
  resting membrane potential: lower resting membrane potential
[3]
  morphological features (maturation into adult-like cardiomyocytes): polarization of cells, improved sarcomeric organization, and elongated shape
